Assays:
tubulin = experiment: Fluorescence-based microtubule (tubulin) polymerization assay; type: biochemical
Method: Tubulin polymerization was investigated using the “Fluorescence-based Microtubule Polymerisation Assay Kit” from Cytoskeleton (Denver, Colo., USA; order number: BK011). With this assay, GTP is added to unpolymerized tubulin, allowing polymerization to take place spontaneously. The assay is based on the binding of the fluorophore 4′,6-di-amidino-2-phenylindole (DAPI) to tubulin. Free and bound DAPI can be differentiated on the basis of different emission spectra.
[…] In addition to the buffer control, paclitaxel, with a polymerization-increasing effect, and vinblastin, with a polymerization inhibiting effect, were run additionally as assay controls. Measurement was carried out using 96-well plates with a half base area. The kinetics of the tubulin polymerization were monitored in a Fluorimeter at 37° C. for 1 hour. The excitation wavelength was 355 nm, and emission was monitored at 460 nm. For the region of linear increase within the first 10 minutes, a calculation was made of the change in fluorescence per minute (ΔF/min), which represents the polymerization rate of the microtubuli. The potency of the test substances was quantified on the basis of their respective reduction of the polymerization rate.
The reduction in the tubulin polymerization rate occurs in dependence on the concentration of the test substance added.

Caco-2 cells = experiment: Caco-2 flux assay for cell permeability; type: in vitro ADME; settings: 2 hours, B to A
Method: The cell permeability of a substance can be investigated by means of in vitro testing in a flux assay using Caco-2 cells [M. D. Troutman and D. R. Thakker, Pharm. Res. 20 (8), 1210-1224 (2003)]. For this purpose, the cells were cultured for 15-16 days on 24-well filter plates. For the determination of permeation, the respective working example was applied in a HEPES buffer to the cells either apically (A) or basally (B) and incubated for 2 hours. After 0 hours and after 2 hours, samples were taken from the cis and trans compartments. The samples were separated by HPLC (Agilent 1200, Böblingen, Germany) using reverse phase columns. The HPLC system was coupled via a Turbo Ion Spray Interface to a Triple Quadropol mass spectrometer API 4000 (Applied Biosystems Applera, Darmstadt, Germany). The permeability was evaluated on the basis of a Papp value, which was calculated using the formula published by Schwab et al. [D. Schwab et al., J. Med. Chem. 46, 1716-1725 (2003)].

[1] = Pharmacokinetics in the HT29 tumour model, non-transfected tumours; type: in vivo; settings: after i.v. 16 mg/kg of Example 5; animals with nontransfected tumours
Method: Following intravenous administration of 16 mg/kg of Example 5, the plasma concentrations and tumour concentrations of Example 5 and also of potential metabolites such as, for example, of Example 64 were measured. […] In contrast, the AUC in the tumour in the nontransfected animals was about 8 times lower than in the transfected animals.
The measurement of the compound from Example 64 in plasma and tumour took place following precipitation of the proteins with methanol, by means of high-pressure liquid chromatography (HPLC) coupled to a tandem mass spectrometer (MS).
For the processing of 100 μL of plasma, it was admixed with 400 μL of methanol and 10 μL of internal standard (ISTD, 50 ng/mL in methanol) and shaken for 10 seconds. After centrifuging for 5 minutes at 16 000 g, 250 μL of supernatant were transferred to an autosampler vial, which was made up with 250 μL of ammonium acetate buffer (AAC, 10 mM, pH 6.8) and shaken again.
For the processing of a tumour, it was admixed with 4 times the amount of methanol. […] After again being shaken, the tumour sample was ready for measurement.
The measurement of both matrix samples took place, lastly, on the HPLC-coupled, atmospheric pressure ionization/tandem mass spectrometer by means of a Turbo Ion Spray Interface (TISP) on an API4000 instrument from SCIEX. The m/z transitions measured were as follows: […]

## CC[C@H](C)[C@@H]([C@@H](CC(=O)N1CCC[C@H]1[C@H](OC)[C@@H](C)C(=O)N[C@@]1(C(=O)N2CCCCO2)C[C@@H]1c1ccccc1)OC)N(C)C(=O)[C@@H](NC(=O)[C@H](C(C)C)N(C)CCCC(=O)NNC(=O)CCCCCN1C(=O)CC(SC[C@H](N)C(=O)O)C1=O)C(C)C (stereo partly drawn) [Example 64, N-(4-{2-[6-(3-{[(2R)-2-Amino-2-carboxyethyl]sulphanyl}-2,5-dioxopyrrolidin-1-yl)hexanoyl]hydrazino}-4-oxobutyl)-N-methyl-L-valyl-N-[(3R,4S,5S)-3-methoxy-1-{(2S)-2-[(1R,2R)-1-methoxy-2-methyl-3-{[(1S,2R)-1-(1,2-oxazinan-2-ylcarbonyl)-2-phenylcyclopropyl]amino}-3-oxopropyl]pyrrolidin-1-yl}-5-methyl-1-oxoheptan-4-yl]-N-methyl-L-valinamide]
tubulin; 1 μM
  reduction in the polymerization rate: 41%
tubulin; concentration of toxophore 1 μM
  Tubulin polymerization in the presence of toxophore in [%]. Tubulin polymerization rate at 1 μM MMAF set at 100%: 120%
Caco-2 cells
  Papp (B-A): 2.5 nm/s
[1]
  exposure in plasma: identical to the exposure in plasma in animals with transfected tumours
